The target in data set [1] is T1, AKT3 (Homo sapiens, UniProt Q9Y243). As to the kind of experiment: biochemical. The settings on record: for IC50: read-out: AKT3 pep. (Ex. C.3): pIC50 values (converted); for pIC50: AKT3 pep. (Ex. C.3): pIC50 values.
Target sequence in this assay (Q9Y243 whole entry, species assumed): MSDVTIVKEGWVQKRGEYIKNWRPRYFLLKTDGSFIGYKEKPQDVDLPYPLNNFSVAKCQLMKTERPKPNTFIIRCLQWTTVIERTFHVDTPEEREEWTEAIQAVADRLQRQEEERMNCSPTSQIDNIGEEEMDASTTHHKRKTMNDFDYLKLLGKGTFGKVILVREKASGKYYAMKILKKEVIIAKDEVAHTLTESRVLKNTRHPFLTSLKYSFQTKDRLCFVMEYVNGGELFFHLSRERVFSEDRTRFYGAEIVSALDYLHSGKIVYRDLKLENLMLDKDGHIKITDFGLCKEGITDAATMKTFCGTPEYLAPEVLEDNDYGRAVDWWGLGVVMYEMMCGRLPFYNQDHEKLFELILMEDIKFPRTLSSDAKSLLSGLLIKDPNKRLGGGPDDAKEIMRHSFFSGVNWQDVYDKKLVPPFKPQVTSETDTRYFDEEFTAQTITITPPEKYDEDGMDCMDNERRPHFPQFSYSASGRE
The target in data set [2] is T1, AKT3. As to the kind of experiment: cell-based. The settings on record: for IC50: read-out: AKT cel (Ex. C.6): pIC50 values (converted); for pIC50: AKT cel (Ex. C.6): pIC50 values, MDA-MB 231 cells, phosphorylated MAPK read-out.
Target sequence in this assay (Q9Y243 whole entry): as the sequence (Q9Y243 whole entry, species assumed) above
For another data set, the target named is T2, CDC25B (Homo sapiens, UniProt P30305).
T2 sequence (P30305 1-580): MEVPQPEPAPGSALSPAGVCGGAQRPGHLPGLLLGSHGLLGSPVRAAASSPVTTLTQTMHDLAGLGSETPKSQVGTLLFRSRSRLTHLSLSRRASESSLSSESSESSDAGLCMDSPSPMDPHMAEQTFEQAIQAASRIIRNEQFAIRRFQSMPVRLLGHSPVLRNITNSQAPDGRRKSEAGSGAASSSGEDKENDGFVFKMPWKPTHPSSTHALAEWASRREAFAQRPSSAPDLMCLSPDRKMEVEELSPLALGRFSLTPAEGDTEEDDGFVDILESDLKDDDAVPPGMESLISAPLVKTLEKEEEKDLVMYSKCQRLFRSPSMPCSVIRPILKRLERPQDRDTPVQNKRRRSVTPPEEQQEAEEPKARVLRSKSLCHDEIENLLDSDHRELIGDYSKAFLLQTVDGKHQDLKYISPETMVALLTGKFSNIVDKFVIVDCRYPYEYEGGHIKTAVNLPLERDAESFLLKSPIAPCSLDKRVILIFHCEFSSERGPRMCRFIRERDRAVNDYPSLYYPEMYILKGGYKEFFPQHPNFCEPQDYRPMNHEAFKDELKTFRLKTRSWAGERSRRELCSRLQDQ
As to the kind of experiment: biochemical. Conditions: for IC50: read-out: CDC25B WT (Ex. C.5): pIC50 values (converted); for pIC50: CDC25B WT (Ex. C.5): pIC50 values.

In another data set the target is CDK4 (Homo sapiens, UniProt P11802). As to the kind of experiment: biochemical. Conditions: for IC50: read-out: CDK4 SPA (Ex. C.1): pIC50 values (converted); for pIC50: CDK4 SPA (Ex. C.1): pIC50 values.
The next data set in a line: physchem. Conditions: pH 7.4, aqueous buffer, kinetic from dmso stock.
In a further data set the test system is A2780 cells. As to the kind of experiment: Cytotox survival of A2780 cells after 3 days. Format: cell-based. Conditions: for IC50: Homo sapiens, A2780, 72 h. On the procedure:
In an alternative assay, the growth inhibitory effect of the compounds was tested on the ovarian carcinoma cell line A2780 using art known cytotoxicity assays such as LIVE/DEAD (Molecular Probes) MTT.

Setting [3] is: read-out: Cytotox survival of A2780 cells after 3 days - pIC50 values, A2780 cells, 3 days (converted).
The mark [4] stands for this setting: A2780 cells, 3 days, read-out: Cytotox survival of A2780 cells after 3 days - pIC50 values (converted).

pIC50: −log10 of the molar value. In brackets after ≈: the same amount, converted by molar mass. Like-named read-outs stand apart in the source and are kept apart here.

Chain of CDK4 (P11802 whole entry, species assumed): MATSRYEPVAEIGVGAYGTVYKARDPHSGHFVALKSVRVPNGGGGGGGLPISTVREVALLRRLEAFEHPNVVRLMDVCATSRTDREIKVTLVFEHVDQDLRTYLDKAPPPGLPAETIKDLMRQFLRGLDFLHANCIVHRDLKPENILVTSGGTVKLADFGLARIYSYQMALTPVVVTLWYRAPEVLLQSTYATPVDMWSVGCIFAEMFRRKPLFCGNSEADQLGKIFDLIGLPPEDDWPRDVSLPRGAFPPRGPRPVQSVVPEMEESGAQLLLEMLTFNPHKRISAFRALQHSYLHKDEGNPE
Chain of CDK4 (P24385 whole entry partner, species assumed): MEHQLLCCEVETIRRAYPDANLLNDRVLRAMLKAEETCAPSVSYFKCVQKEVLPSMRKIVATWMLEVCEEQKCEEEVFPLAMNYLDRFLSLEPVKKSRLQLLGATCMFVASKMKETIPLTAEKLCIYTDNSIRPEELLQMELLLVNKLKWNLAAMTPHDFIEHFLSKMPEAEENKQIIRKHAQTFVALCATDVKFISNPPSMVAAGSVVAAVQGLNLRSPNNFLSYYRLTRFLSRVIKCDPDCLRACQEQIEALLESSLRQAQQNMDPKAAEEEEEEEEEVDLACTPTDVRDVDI

`COc1cc(-c2nc3c(=O)n(C)c(=O)nc-3n(C)n2)ccc1OCCN1CCN(C)CC1` had a melting point of 239 °C.

`COc1cc(-c2nc3c(=O)n(C)c(=O)nc-3n(C(C)C)n2)ccc1OCCN1CCN(C)CC1` had a melting point of 233 °C.

The compound `Cn1nc(-c2ccccc2)nc2c(=O)n(C3CCN(C(=O)OC(C)(C)C)CC3)c(=O)nc1-2` displayed a melting point above 250 °C.

For the compound `CCCC(C)n1nc(-c2ccccc2)nc2c(=O)n(C)c(=O)nc1-2` (stereo not shown), the melting point stood at 216 °C.

`CCOC(=O)C(C)n1nc(-c2ccccc2)nc2c(=O)n(C)c(=O)nc1-2` (stereo not shown) returned a melting point of 215 °C.

On to `Cn1c(=O)nc2n(C3CCN(C(=O)OC(C)(C)C)CC3)nc(-c3ccccc3)nc-2c1=O`, for which the melting point amounted to 250 °C.

With `Cn1c(=O)nc2n(C3CCNCC3)nc(-c3ccccc3)nc-2c1=O`, the melting point was above 250 °C.

`COc1cc(-c2nc3c(=O)n(C)c(=O)nc-3n(C3CCCC3)n2)cc(OC)c1OCCN1CCOCC1` returned a melting point of 187.5 to 209 °C.

Compound `COc1cc(-c2nc3c(=O)n(C)c(=O)nc-3n(C(C)C)n2)ccc1OCCN1CCCCC1` had a melting point of 222 °C.

`CC(C)n1nc(-c2ccc(OCCN3CCOCC3)cc2)nc2c(=O)n(C)c(=O)nc1-2` yielded a melting point of 232 °C.

With `CC(C)n1nc(-c2ccc(CNC3CCNCC3)cc2)nc2c(=O)n(C)c(=O)nc1-2` [Compound 98], the IC50 was 194 nM on AKT3 [1]; above 3000 nM on AKT3 [2]; 58.5 nM on CDC25B; 200 nM on CDK4; 488 nM in the data set with A2780 cells (setting [3]). Moreover, the solubility in “physchem” was above 1800 µM.

As for `CC(C)n1nc(-c2ccc(CNC3CCN(S(=O)(=O)N(C)C)CC3)cc2)nc2c(=O)n(C)c(=O)nc1-2` [Compound 99], the IC50 on AKT3 [1] was 170 nM; at AKT3 [2], 432 nM; on CDC25B, 30.3 nM; at CDK4 it was 141 nM; in the data set with A2780 cells (setting [3]), 120 nM. The solubility in the data set “physchem” was above 1800 µM.

Regarding `COCCNCc1ccc(-c2nc3c(=O)n(C)c(=O)nc-3n(C(C)C)n2)cc1` [Compound 100], the pIC50 was 6.75 against AKT3 [1], 6.39 at AKT3 [2], 7.30 against CDC25B and 6.80 on CDK4. For the same compound, in the data set “physchem”, the solubility is above 1800 µM. Also, the IC50 in the data set with A2780 cells (setting [4]) is 246 nM.

In the case of `CC(C)n1nc(-c2ccc(OCCN)cc2)nc2c(=O)n(C)c(=O)nc1-2` [Compound 101], the pIC50 against AKT3 [1] was 6.63; at AKT3 [2], 6.29; against CDC25B, 7.27; on CDK4 it was 6.64. For the same compound, the solubility in the data set “physchem” was above 1800 µM. Moreover, the IC50 in the data set with A2780 cells (setting [4]) is 579 nM.

On to `CC(C)n1nc(-c2ccc(CN3CCN(S(N)(=O)=O)CC3)cc2)nc2c(=O)n(C)c(=O)nc1-2` [Compound 102], for which the pIC50 at AKT3 [1] is 6.76; at AKT3 [2], below 5.52; against CDC25B, 7.44; at CDK4, 7.10. Further, in the data set “physchem”, the solubility was above 1800 µM. In addition, the IC50 with A2780 cells (setting [4]) was 912 nM.

For `CC(C)n1nc(-c2ccc(CN3CCN(S(=O)(=O)N(C)C)CC3)cc2)nc2c(=O)n(C)c(=O)nc1-2` [Compound 103], the IC50 on AKT3 [1] is 129 nM; at AKT3 [2] it was above 3020 nM; on CDC25B, 22.6 nM; on CDK4, 357 nM; in the data set with A2780 cells (setting [3]), 425 nM. The solubility in “physchem” lay in the range of 160 to 1800 µM (≈ 80.4 to 905 µg/mL).

In the case of `CC(C)n1nc(-c2ccc(OCCN3CCNCC3)c(Cl)c2)nc2c(=O)n(C)c(=O)nc1-2` [Compound 104], the IC50 on AKT3 [1] is 121 nM; at AKT3 [2], 726 nM; on CDC25B it was 30.2 nM; on CDK4, 128 nM; in the data set with A2780 cells (setting [3]), 214 nM. This compound also had a solubility in “physchem” above 1800 µM.

Take `COc1cc(-c2nc3c(=O)n(C)c(=O)nc-3n(C(C)C)n2)cc(OC)c1OCCN(C)C1CCNCC1` [Compound 105]: the IC50 is 138 nM at AKT3 [1]; above 3020 nM on AKT3 [2]; 35.6 nM at CDC25B; 153 nM on CDK4; below 3010 nM with A2780 cells (setting [3]). This compound came in with a solubility in the data set “physchem” above 1800 µM.

For the compound `COc1cc(-c2nc3c(=O)n(C)c(=O)nc-3n(C(C)C)n2)cc(OC)c1OCCN1CCCCC1` [Compound 106], the IC50 on AKT3 [1] was 117 nM; at AKT3 [2], above 3020 nM; at CDC25B it was 33.3 nM; at CDK4 it was 142 nM. The solubility in the data set “physchem” is above 1800 µM. The “Cytotox survival of A2780 cells after 3 days - pIC50 values” in the data set with A2780 cells (A2780 cells, 3 days) turned out to be 6.074.

As for `CC(C)n1nc(-c2ccc(CN(C)CCO)cc2)nc2c(=O)n(C)c(=O)nc1-2` [Compound 111], the pIC50 was 6.79 on AKT3 [1], 6.10 at AKT3 [2], 7.51 against CDC25B and 6.90 at CDK4. In the data set “physchem”, the solubility is above 1800 µM. Further, the IC50 in the data set with A2780 cells (setting [4]) was 157 nM.

As for `CC(C)n1nc(-c2ccc(CN(C)C3CCN(S(=O)(=O)N(C)C)CC3)cc2)nc2c(=O)n(C)c(=O)nc1-2` [Compound 113], the IC50 is 184 nM on AKT3 [1]; above 3020 nM on AKT3 [2]; 119 nM at CDC25B; 151 nM at CDK4; 220 nM in the data set with A2780 cells (setting [3]). Further, in “physchem”, the solubility is above 1800 µM.

Regarding `Cn1c(=O)nc2n(C3CCCC3)nc(-c3ccc(CN4CCNCC4)cc3)nc-2c1=O` [Compound 153], the IC50 at AKT3 [1] was 335 nM; on AKT3 [2] it was 495 nM; at CDC25B it was 46 nM; on CDK4, 369 nM; in the data set on A2780 cells (setting [3]), 181 nM. This compound also gave a solubility in “physchem” above 1800 µM.

As a reminder, the melting point is the temperature of the solid-liquid transition. In general, solubility refers to the dissolved amount per volume that the medium holds. Lower therefore signals little dissolved substance. Broadly, the pIC50 is the negative decadic logarithm of the IC50, by convention in mol/L.

For the origin of these results see patent publication US20050239784A1 (priority 2002, published 2005).
